Results on one compound are retold here after patent US20080200538A1, “Inhibition of Monocyte Survival, Differentiation, or Proliferation” (The Ohio State University Research Foundation, priority 2005, published 2008).

A word on the viability: it is a per cent measure of how many cells are alive, often set against a control.

One series deals with A549 cells. Description: Cell viability assay (CellTiter 96 / MTT, A490). Format: cell-based. To be noted: A549, apigenin, 24 h; reduced to. As for the experimental part:
(§1) FIG. 1. Effect of apigenin and naringenin in cell survival of cancer cells. (A) Structure of the flavonoids apigenin and naringenin. (B) THP-1, U937, A549, and MCF-7 cells were treated with various doses of apigenin or naringenin for 24 h. After the treatment, the percentage of cell proliferation was calculated as the ratio of treated cells to control cells as determined by the MTT method (A490). Data represents means ±SEM (N=9). […] Cells were plated at a density of 2×10^4 cells/well into 96-well plates and treated with flavonoids at indicated concentrations for 24 h. Absorbance at 490 nm (A490) was recorded using an ELISA plate reader (Bio-Tek ELx800, KC Junior, Winooski, Vt.).

The next series has as its system MCF-7 cells. Description: Cell viability assay (CellTiter 96 / MTT, A490). Format: cell-based. To be noted: MCF-7, apigenin, 24 h; reduced to. The procedure:
as §1

Series [1] deals with THP-1 cells. Put plainly: Cell survival and apoptosis by calcein AM/PI staining. The format is cell-based, human. As for the experimental part:
FIG. 2. Apigenin induces cell death in monocytic leukemia cells. THP-1 and U937 leukemia cells were treated for various lengths of time with 50 μM apigenin or left untreated (NT) and stained with calcein AM and PI as described in Material and Methods to evaluate the percentage of cell survival. (A) THP cells after 12 h cells treated with 50 μM apigenin or with DMSO (NT). (B) The percentage of cell survival represented by means ±SEM (N=3).
(§2) FIG. 4. Caspase-3 activation is required for apigenin-induced apoptosis. THP-1 cells were treated for 12 h with 50 μM apigenin alone or pretreated with 20 μM DEVD-FMK for 1 h prior to the addition of apigenin. (A) Cells were then stained with calcein AM and 24 PI and the percentage of apoptotic cells was determined. (B) Lysates from cells treated as described above were used to determined caspase-3 activity by the DEVD-AFC assay. All data represents means ±SEM (N=5).
(§3) FIG. 7. Apigenin induced p38 activation is not required for apoptosis. A. Cells were pretreated for 1 h prior to addition of 50 μM apigenin or DMSO (−) with 10 or 25 μM concentrations of SB203580 or DMSO (−) for 12 h. The percentage of apoptotic cells was determined by calcein AM with PI stained cells. Data represents means ±SEM (N=5 p>0.05). B. Lysates from the same treatments were used to determined caspase-3 activity by the DEVD-AFC assay. Data represents means ±SEM (N=5 p>0.05).
To investigate apoptosis, cells were plated at a density of 1×10^6 cells/well. After treatment, cells were collected and washed in PBS. Cells were then incubated in RPMI (no phenol red) and 1 μg/ml calcein AM for 30 min and 5×10−2 ng/ml propidium iodide (PI) for 5 min. Cells were washed twice and resuspended in PBS. Cells were viewed using a fluorescent microscope (Olympus, Melville, N.Y.). At least 200 cells were counted. Cells calcein AM positive (green) in the absence of PI (red) were considered alive while cells undergoing apoptosis are green with red. Number of green cells or green with red cells was counted over total number of cells (green alone and green with red) to express cell survival or apoptotic cell percentage respectively.

The test system of another series is caspase-3. Description: Caspase-3 activity, DEVD-AFC assay, THP-1 lysates. The format is cell-based, human. To be noted: THP-1, 50 μM apigenin. The procedure:
FIG. 3. Apigenin induces caspase activation in monocytic leukemia. THP-1 (top) and U937 (bottom) leukemia cells were treated for various lengths of time with 50 μM apigenin or DMSO (NT). (A and C) Caspase-9 activity was determined by the LEHDAFC assay. (B and D) Caspase-3 activity was determined by the DEVD-AFC assay. Data represents means ±SEM (N=3).
as §2, §3
For measurements of caspase activity, cells were plated at a density of 1.5×10^6 cells/well. After treatment, cells extracts were prepared as previously described (Doseff, A. I., Baker J. H., Bourgeois T. A. and Wewers M. D. (2003) Interleukin-4-induced zpoptosis entails caspase activation and suppression of extracellular signal-regulated kinase phosphorylation. Am. J. Resp. Cell Mol. Biol., 29, 367-374). […] Levels of released AFC were measured using Cytofluor 400 fluorimeter (Filters: excitation 400 nm, emission 508 nm; Perspective Co., Framingham, Mass.).

For the next series, the system named is Akt. Put plainly: Western blot of Akt phosphorylation and total Akt in THP-1 cells. Format: cell-based, human. As to conditions: THP-1, 50 μM apigenin. The procedure: FIG. 5. Apigenin affects Akt phosphorylation. THP-1 cells were treated with 50 μM apigenin for different lengths of time. Lysates were separated by SDS-PAGE, transferred and immunoblotted with anti-phospho-Akt (pSer 473), anti-phospho-Akt (pThr 308), total Akt, and â-tubulin antibodies.
FIG. 6. Apigenin induces the activation of p38 and inactivation of Akt. A. THP-1 cells were treated with 50 μM apigenin for various lengths of time. Lysates were separated by SDS-PAGE, transferred and analyzed by immunoblots with anti-phospho-p38 (pp 38) and anti-total-p38 antibodies. B. […] Lysates were analyzed by immunoblotting with anti-phospho-Akt (pSer 473), anti-phospho-p38 (p-p38), and anti-total-p38 antibodies.
Extracts from 3×10^6 cells were prepared by incubating cells for 30 min on ice in lysis buffer (50 mM Tris, 10 mM EDTA 0.5% NP-40, 10 mM Na-glycerophosphate, 5 mM Na-pyrophosphate, 50 mM NaF, 1 mM orthovanadate, 1 mM DTT, 0.1 mM PMSF, 2 μg/ml of protease inhibitors: chymostatin, pepstatin, antipain, and leupeptin). Cell lysates were centrifuged (14,000×g for 10 min at 4° C.) and the supernatants were stored for at −70° C. for future analysis. Equal amounts of protein were loaded and separated by SDS-PAGE, transferred onto nitrocellulose membranes and probed with antibodies of interest followed by horseradish peroxidase conjugated secondary antibody and visualized by enhanced chemiluminescence (Amersham, Arlington Heights, Ill.). Phospho-Ser473-Akt, phospho-Thr308-Alt, total AKT, phospho-p38 and total p38 antibodies were obtained from Cell Signaling (Boston, Mass.). â-tubulin antibody was obtained from Upstate (Charlottesville, Va.).

The subject of series [2] is THP-1 cells. Put plainly: Reverse-phase HPLC of extracts of treated THP-1 cells (conversion of compound). To be noted: extracts of THP-1 cells, data not shown.

As for `O=c1cc(-c2ccc(O)cc2)oc2cc(O)cc(O)c12` [apigenin], the “cell proliferation (ratio of treated to control cells)” value in the series with A549 cells and with MCF-7 cells was 80% in each case. Also, the viability at 50 µM in the series with THP-1 cells [1] (Homo sapiens, THP-1, 12 h, read-out: cell viability (survival)) is 30%. Besides, the apoptotic cells with THP-1 cells [1] (THP-1, 50 μM apigenin alone, 12 h) was 70%. The cell survival in the series with THP-1 cells [1] (THP-1, 50 μM, 9 h, reduced to) is listed as 80%. Also, in the series on caspase-3, the “caspase-3 activity, time course” value is “detected after 6 h and similarly to caspase-9, the activity was sustained at 9 h, but decreased after 12 h”. Besides, the “total Akt protein levels” value in the series on Akt (after six hours) was “dramatically decreased”. Moreover, the “Akt pSer473 phosphorylation” value in the series with Akt (during the first hour) is listed as “rapid decrease”. Further, the “Akt pThr308 phosphorylation” value in the series on Akt (first six hours) was “not significantly affected”. The “conversion to another chemical entity in treated cells” value in the series with THP-1 cells [2] is given as “neither one of these two compounds is significantly converted”.
